Assay type in all cases: organism-based
Holding throughout (parameters): scale not given: the % may be the effect or the level left

Series [1] has as its system Solanum lycopersicum. Put plainly: Phytotoxicity against Solanum lycopersicum (tomato) plant assessed as decrease in plant height at 150 mg/L applied 1 days prior to transplantation for 10 secs measured after 4 weeks relative to untreated-control. The settings on record: in vivo, other.
Series [2] concerns Solanum lycopersicum. Put plainly: Phytotoxicity against Solanum lycopersicum (tomato) plant assessed as decrease in plant height at 200 mg/L applied 1 days prior to transplantation for 10 secs measured after 4 weeks relative to untreated-control. As to conditions: in vivo.
For series [3], the system named is Solanum lycopersicum. Put plainly: Phytotoxicity against Solanum lycopersicum (tomato) plant assessed as decrease in plant height at 100 mg/L applied 1 days prior to transplantation for 10 secs measured after 4 weeks relative to untreated-control. As to conditions: in vivo.
Series [4] relates to Solanum lycopersicum. The experiment in a line: Phytotoxicity against Solanum lycopersicum (tomato) plant assessed as decrease in plant height at 25 mg/L applied 1 days prior to transplantation for 10 secs measured after 4 weeks relative to untreated-control. The settings on record: in vivo.
For series [5], the system named is Solanum lycopersicum. Put plainly: Phytotoxicity against Solanum lycopersicum (tomato) plant assessed as decrease in vigour at 150 to 200 mg/L applied 1 days prior to transplantation for 10 secs measured after 4 weeks relative to untreated-control. As to conditions: in vivo.
For series [6], the system named is Solanum lycopersicum. Put plainly: Phytotoxicity against Solanum lycopersicum (tomato) plant assessed as decrease in vigour at 100 mg/L applied 1 days prior to transplantation for 10 secs measured after 4 weeks relative to untreated-control. The settings on record: in vivo.
Series [7] has as its system Solanum lycopersicum. The experiment in a line: Phytotoxicity against Solanum lycopersicum (tomato) plant assessed as decrease in vigour at 50 mg/L applied 1 days prior to transplantation for 10 secs measured after 4 weeks relative to untreated-control. As to conditions: in vivo.
Series [8] has as its system Solanum lycopersicum. Put plainly: Phytotoxicity against Solanum lycopersicum (tomato) plant assessed as decrease in vigour at 25 mg/L applied 1 days prior to transplantation for 10 secs measured after 4 weeks relative to untreated-control. As to conditions: in vivo.
Series [9] relates to Solanum lycopersicum. Put plainly: Phytotoxicity against Solanum lycopersicum (tomato) plant assessed as decrease in vigour at 100 mg/L applied 1 days prior to transplantation for 10 secs measured after 2 weeks relative to untreated-control. As to conditions: in vivo.
Series [10] deals with Solanum lycopersicum. Put plainly: Phytotoxicity against Solanum lycopersicum (tomato) plant assessed as decrease in vigour at 25 mg/L applied 1 days prior to transplantation for 10 secs measured after 2 weeks relative to untreated-control. As to conditions: in vivo.
Series [11] concerns Solanum lycopersicum. The experiment in a line: Phytotoxicity against Solanum lycopersicum (tomato) plant assessed as decrease in marketable yeild at 150 mg/L applied 1 days prior to transplantation for 10 secs measured after 4 weeks relative to untreated-control. The settings on record: in vivo.
For series [12], the system named is Solanum lycopersicum. The experiment in a line: Phytotoxicity against Solanum lycopersicum (tomato) plant assessed as decrease in marketable yeild at 25 mg/L applied 1 days prior to transplantation for 10 secs measured after 4 weeks relative to untreated-control. The settings on record: in vivo.

As to `O=C(O)CNCP(=O)(O)O` [GLYPHOSATE], the Activity in series [1] is reported as 72%; in [2], 75%; in [3] it was 65%; in [4], 29%; in [5], “<= 15%”; in [6], 58%. Further, the Activity in [7] is given as 36%; in series [8] it was 36%; in [9], “<= 50%”; in [10] it was 78%; in series [11], more than 98%; in [12], 41%.

Values taken from ChEMBL document CHEMBL3045613, “Effects of sublethal glyphosate rates on fresh market tomato” (Crop Prot, 2007).
